# In patent US20260345561A1, “METHODS AND COMPOSITIONS FOR USE IN TREATING AUTOSOMAL RECESSIVE POLYCYSTIC KIDNEY DISEASE (ARPKD)” (The General Hospital Corporation, priority 2022, published 2026):
# “Also recorded” adds a separate entry of the source. Where two headings read alike, the source gives them in different places.
# B1: rhCXCL16: recombinant human C—X—C Motif Chemokine Ligand 16 (rhCXCL16) for CXCL16 (protein, UniProt Q9H2A7 30-254, looked up)
# C-X-C motif chemokine 16: NEGSVTGSCYCGKRISSDSPPSVQFMNRLRKHLRAYHRCLYYTRFQLLSWSVCGGNKDPWVQELMSCLDLKECGHAYSGIVAHQKHLLPTSPPISQASEGASSDIHTPAQMLLSTLQSTQRPTLPVGSLSSDKELTRPNETTIHTAGHSLAAGPEAGENQKQPEKNAGPTARTSATVPVLCLLAIIFILTAALSYVLCKRRRGQSPQSSPDLPVHYIPVAPDSNT
# Assays:
# [1] = system: ARPKD patient-derived organoids; assay: Cyst formation on cAMP induction in static patient-derived organoids; type: cell-based, human
# Experimental: (§1) H9 (WiCell) human ES cells, H9-derived PKHD1 mutants, and ARPKD patient-derived iPSCs (68) were maintained on hESC-qualified Geltrex (Thermo Fisher Scientific) coated plates using StemFit® Basic02 (Ajinomoto Co., Inc.) supplemented with 10 ng/ml of FGF2 (Peprotech), as previously reported (69).
# Kidney organoids were cultured in static condition and treated with 20 μM of forskolin (Sigma, #F6886), a cAMP inducer, from day 14 to day 35.
# (§2) FIG. 2J; n=4 (perfusion), n=4 (rest). FIG. 2K; n=3. […] 3 independent experiments were performed for FIG. 3E. […] FIG. 4H; n=4 (control), n=4 (ARPKD). FIG. 4I; n=4 (control), n=4 (ARPKD).
# [2] = system: ARPKD patient-derived organoids; details: prior ARPKD organoid model from patient-derived iPS cells, static culture (ref. 17); cited from earlier work
# [3] = system: PKHD1−/− organoids; assay: Cyst formation / tubular diameter on forskolin treatment in static culture; type: cell-based, human
# From the text: (§3) Data in all bar charts and dot plots are expressed as mean±s.d. Statistical analysis was done in GraphPad Prism 9, and statistical significance was attributed to values of P<0.05 as determined by one-way ANOVA with Tukey's multiple-comparisons test unless otherwise noted. Different significance levels (P values) are indicated in each figure with asterisks: *P<0.05, **P<0.01, ***P<0.001, and ****P<0.0001. […] FIG. 1F; n=74 LTL+ tubules with flow, n=66 LTL+ tubules in static culture, n=191 LTL+ tubules treated with forskolin, n=32 CDH1+ tubules with flow, n=27 CDH1+ tubules in static culture, and n=104 CDH1+ tubules treated with forskolin. FIG. 2C; n=16 tubules transfected with siControl, n=17 tubules transfected with siKIF3A. 8 organoids transfected with siControl, and 7 organoids transfected with siKIF3A from 2 independent chips were analyzed in FIG. 2C.
# [4] = system: PKHD1−/− organoids; assay: CDH1+ distal tubular enlargement / cyst formation by 3D imaging of cleared whole organoids-on-a-chip; type: cell-based, human; details: for cyst suppression: Z-DEVD-FMK 1 μM, Quercetagetin 10 μM, rhCXCL16 1 ng/ml (FIG. 3D, E)
# Experimental: as §1
# Heterozygotic (PKHD1+/−) and compound homozygotic (PKHD1−/−) mutant lines were generated using methodology previously outlined (70), which generated clones of isogenic progeny via clonal expansion from single cells. PX459 plasmid encoding a Streptococcus pyogenes Cas9 and guide RNA (sgRNA) targeting the third exon of PKHD1 (5′-[…]-3′; SEQ ID NO:1) was transfected into H9 hESCs to generate the heterozygotic mutant line, which then served as the parental line to generate the compound homozygotic mutant. Transfected cells were selected by transient puromycin treatment. CRISPR/Cas9-induced mutations of individual clones were identified by deep sequencing.
# The organoids were seeded onto the chip devices on day 14 of their differentiation and cultured on chip by flowing cell culture medium composed of ARMPI with GlutaMAX, 1% Antibiotic/Antimycotic solution (Gibco), and 1.5% heat-inactivated fetal bovine serum (Gibco). All cell culture medium was pre-equilibrated to the cell culture incubator environment for at least 2 hr before chip assembly and seeding. The kidney organoids-on-a-chip was then held in a cell culture incubator for 30 min under static conditions, before connecting the inlet perfusion tubing to an IPC-N peristaltic pump (Ismatech) and perfusing the cell culture media at 42.7 μl/min overnight in the incubator. The following day (day 15 of organoid differentiation), the sterile filter was removed from the perfusion line to avoid bubble formation at high perfusion speeds, and the perfusion speed was ramped up to 4.27 mL/min. Cell culture medium was changed in the reservoir every 2-3 days.
# Full media exchanges were conducted every 2-3 days. Treatment of the kidney organoids-on-a-chip was started at day 16 of their differentiation until day 35.
# The chip device was taken out of the incubator for fixation, and the lid was carefully removed in a sterile biosafety cabinet. The kidney organoids adherent on the surface of the ECM were rinsed with PBS, carefully overlayed with 4% PFA, and fixed for 45 min at RT. Post fixation, the samples were washed three times with 0.1% Triton-X (Sigma) for 30 min. Organoids were stained and cleared with ethyl cinnamate (Sigma), as described before (78). The following antibodies were used in these studies: anti-CDH1 (Abcam, ab11512), anti-CFTR (Sigma, HPA021939), anti-LTL (Vector lab, B-1325), anti-PODXL (R&D systems, AF1658), anti-K167 (Dako, m7248), Anti-pS6RP (Cell signaling, 2211S), anti-RAC1 (Developmental Studies Hybridoma Bank, CPTC-RAC1-2), anti-FOS (Abcam, ab190289). Samples were examined by a Zeiss TIRF/LSM 710 confocal microscopy or a Leica […] 8 confocal microscopy, and by using Imaris 3D software (Bitplane).
# as §3, with “siKIF3A.” for “siKIF3A. 8 organoids transfected with siControl, and 7 organoids transfected with siKIF3A from 2 independent chips were analyzed in FIG. 2C.”
# [5] = system: RAC1; details: cited from earlier work
# [6] = system: BAIAP2; details: flow, R-Naproxen 20 μM
# Experimental: (§4) Total RNA was isolated from kidney organoid samples using TRIzol (Invitrogen, #15596026). cDNA was synthesized from 500 ng of RNA using a High-capacity cDNA Reverse Transcription kit (Applied Biosystems, #4368814) according to the manufacturer's instructions. Real-time PCR was performed using iTaq SYBR green supermix (Bio-Rad, #1725124) and QuantStudio3 Real-time PCR systems. The expression of mRNA was assessed by evaluating threshold cycle (CT) values. The CT values and relative expression levels were normalized by ribosomal protein S18 (RPS18), and the relative amount of mRNA specific to each of the target genes was calculated (n=3 in each experiment).
# as §3
# [7] = system: ARFIP2; details: flow, R-Naproxen 20 μM
# Experimental: as §4, §3
# [8] = system: ARFIP2; details: PKHD1−/− organoids, R-Naproxen 20 μM, day 23 (FIG. 5F)
# From the text: as §3
# [9] = system: COX; details: cited from earlier work
# [10] = cited from earlier work
# [11] = system: PRDM1; assay: qPCR for PRDM1 (FOS downstream gene); type: cell-based, human; details: PKHD1−/− and ARPKD patient-derived organoids, flow, T-5224 10 μM, day 16 to 23
# Experimental: as §2
# [12] = clinical trials for arthritis / humans (ref. 45); cited from earlier work
# [13] = system: PRDM1; assay: Quantitative immunohistochemistry for PRDM1; type: cell-based, human; details: PKHD1−/− organoids, T-5224 10 μM, day 23 (FIG. 5F)
# Experimental: as §2
# [14] = system: FOS; details: cited from earlier work
# [15] = system: NPTX2; assay: qPCR for NPTX2 (FOS downstream gene); type: cell-based, human; details: PKHD1−/− and ARPKD patient-derived organoids, flow, T-5224 10 μM, day 16 to 23
# Experimental: as §2
# [16] = system: DUSP1; assay: qPCR for DUSP1 (FOS downstream gene); type: cell-based, human; details: PKHD1−/− and ARPKD patient-derived organoids, flow, T-5224 10 μM, day 16 to 23
# Experimental: as §2
# [17] = forskolin 20 μM, static (FIG. 1F right)
# [18] = PKHD1−/− organoids under flow, day 16 to 35, T-5224 10 μM, NSC23766 10 μM, 2-MeOE2 5 μM (FIG. 3D, E)
# [19] = PKHD1−/− organoids-on-a-chip, day 16 to 35, flow, R-Naproxen 20 μM, R-Ketorolac 1 and 10 μM, T-5224 10 μM (FIG. 4B, C)
# [20] = ARPKD patient-derived organoids, day 16 to 23 (FIG. 14)
# [21] = PKHD1−/− (CRISPR-mutant) organoids, day 16 to 23 (FIG. 5E)
# [22] = PKHD1−/− organoids under flow, day 16 to 35
molecule,measurement,setting,value
C=C[C@@]1(C)CC(=O)[C@]2(O)[C@@]3(C)[C@@H](O)CCC(C)(C)[C@@H]3[C@H](O)[C@H](OC(C)=O)[C@@]2(C)O1 [forskolin],cyst formation,"[1]; ARPKD patient-derived organoids, forskolin 5, 10, 20 μM (FIGS. 6A-G)",form cysts
same,cyst formation in LTL+ proximal tubules,[1]; static organoids derived from ARPKD-patient iPSCs,induced cyst formation
same,cyst formation in CDH1+ distal nephrons,[2],rarely developed cysts
same,cyst formation in LTL+ proximal tubules,[2],formed cystic structures
same,cyst formation,[3]; forskolin 20 μM (FIGS. 8A-H),form cysts
same,diameter in LTL+ CDH− (proximal) tubules,[3]; [17],increases
same,diameter in LTL− CDH1+ (distal) tubules,[3]; [17],increases
CCN(CC)CCCC(C)Nc1nc(C)cc(Nc2ccc3nc(C)cc(N)c3c2)n1 (stereo not shown) [NSC23766],CDH1+ tubular enlargement,[4]; [18],significant reduction
COc1ccc2cc([C@@H](C)C(=O)O)ccc2c1 [R-Naproxen],CDH1+ tubular enlargement,[4]; [19],significant reductions
same,cyst suppression (general statement),"[4]; present data, R-Naproxen",cyst suppression
same,RAC1 inhibition,[5],enhanced RAC1 inhibition
same,inhibitory effect against RAC1,[5],inhibitory effect against RAC1
same,BAIAP2 expression (qPCR),[6]; [20],rescued
same,BAIAP2 expression (qPCR),[6]; [21],rescued
same,ARFIP2 expression (qPCR),[7]; [20],rescued
same,ARFIP2 expression (qPCR),[7]; [21],rescued
same,"ARFIP2 expression (immunohistochemistry), decreased by flow",[8],rescue
same,COX inhibition,[9],limited COX inhibition
O=c1c(O)c(-c2ccc(O)c(O)c2)oc2cc(O)c(O)c(O)c12 [Quercetagetin],cyst suppression,[4]; [22],did not affect cyst suppression
COc1ccc2cc([C@H](C)C(=O)O)ccc2c1 [S-Naproxen],cyst formation,"[4]; PKHD1−/− organoids cultured under flow, S-Naproxen 20 μM (FIG. 11)",did not inhibit cyst formation
same,RAC1 inhibitory activity,[5],lacks RAC1 inhibitory activity
same,anti-inflammatory effect,[10],has an anti-inflammatory effect
"Nc1ncnc2c1nc(Br)n2[C@@H]1O[C@@H]2COP(=O)(O)O[C@H]2[C@H]1O [8-Br-cAMP, 8-Bromoadenosine 3′,5′-cyclic monophosphate]",cyst formation in CDH1+ distal nephrons,[2],rarely developed cysts
same,cyst formation in LTL+ proximal tubules,[2],formed cystic structures
O=C(c1ccccc1)c1ccc2n1CC[C@H]2C(=O)O [R-Ketorolac],CDH1+ tubular enlargement,[4]; [19],significant reductions
same,inhibitory effect against RAC1,[5],inhibitory effect against RAC1
"COc1cc2c(cc1O)CC[C@@H]1[C@@H]2CC[C@]2(C)[C@@H](O)CC[C@@H]12 [2-MeOE2, 2-Methoxyestradiol]",CDH1+ tubular enlargement,[4]; [18],significant reduction
"O=C(O)CCc1cc(C(=O)c2ccc(OC3CCCC3)cc2O)ccc1OCc1ccc2c(O)noc2c1 [T-5224, 3-{5-[4-(cyclopentyloxy)-2-hydroxybenzoyl]-2-[(3-hydroxy-1,2-benzisoxazol-6-yl)methoxy]phenyl}propionic acid]",PRDM1 expression (qPCR),[11],reverse expression
same,CDH1+ tubular enlargement,[4]; [18],significant reduction
same,CDH1+ tubular enlargement,[4]; [19],significant reductions
same,safety profile,[12],favorable safety profile; also recorded: proven to be safe in humans
same,"PRDM1 expression (immunohistochemistry), decreased by flow",[13],rescue
same,FOS inhibition,[14],selective FOS inhibitor; also recorded: specific FOS inhibitor
same,NPTX2 expression (qPCR),[15],reverse expression
same,DUSP1 expression (qPCR),[16],reverse expression
Z-DEVD-FMK,cyst suppression,[4]; [22],marginal effect
B1,cyst suppression,[4]; [22],did not affect cyst suppression
